Measurements from US20230414723A1, “ENHANCED HYT-INDUCED PROTEIN DEGRADATION USING LIPID NANOPARTICLE DELIVERY” (Trustees of Tufts College, priority 2020, published 2023).

Assays:
BRD4 = molecular target: T1, BRD4 (Homo sapiens, UniProt O60885); experiment: BRD4 degradation in HeLa cells by Western blot; format: cell-based
T1 construct: HeLa cells, which express BRD4 at high levels, were selected as a model cell line; host or cells: HeLa
Protocol: 80-O14B LNP was formulated by directly dissolving the lipidoid into 25 mM sodium acetate solution (pH=5.5). 80-O14B LNP was added into the solution with the final concentration of 5 μg/mL and the solution was incubated at room temperature for another 15 min before administration. Pre-fused ARV-825 or SARD279 were prepared through the similar route.
Generally, Western blots was carried out on the Invitrogen Novex SureLock Mini-Cell system. Supplies for the system were bought from Invitrogen (Carlsbad, CA, USA) […] sample was loaded onto 4-12% bis-tris protein gel and the gel was run with a stable voltage of 120 V for 80 min. Then the gel was cut according to the protein ladder and transferred to PVDF membrane with a stable current of 250 mA for 3 h. The membrane was blocked by 5% skimmed milk for 1 h at room temperature and then incubated with primary antibody overnight. After 3 cycles of washing by TBST (tris-buffered saline, 0.1% tween 20), the membrane was incubated with secondary antibody for another 1 h and then washed by TBST for 3 times. The final membrane was then imaged using enhanced chemiluminescence (ECL) substrate.
1×10^6 HeLa cells were cultured in 6 well plate for 24 h before administration. […] After 24 h incubation, the proteins were isolated from HeLa cells using the radio-immunoprecipitation assay (RIPA) lysis buffer and quantitated by bicinchoninic acid assay (BCA assay). Then the proteins were diluted to the sample concentration using NuPAGE LDS sample buffer (Invitrogen, Carlsbad, CA, USA) and denatured at 95° C. for 5 min. The study of targeted protein degradation by ARV-825 and SARD279 were carried out using similar protocols.

androgen receptor (AR) = molecular target: T2, androgen receptor (AR) (Homo sapiens, UniProt P10275, T878A); experiment: AR degradation in LNCaP cells by Western blot; format: cell-based; conditions: 0.125 to 0.5 μM
T2 construct: The study of targeted protein degradation by ARV-825 and SARD279 were carried out using similar protocols; host or cells: LNCaP
T2 sequence (P10275 1-920 T878A): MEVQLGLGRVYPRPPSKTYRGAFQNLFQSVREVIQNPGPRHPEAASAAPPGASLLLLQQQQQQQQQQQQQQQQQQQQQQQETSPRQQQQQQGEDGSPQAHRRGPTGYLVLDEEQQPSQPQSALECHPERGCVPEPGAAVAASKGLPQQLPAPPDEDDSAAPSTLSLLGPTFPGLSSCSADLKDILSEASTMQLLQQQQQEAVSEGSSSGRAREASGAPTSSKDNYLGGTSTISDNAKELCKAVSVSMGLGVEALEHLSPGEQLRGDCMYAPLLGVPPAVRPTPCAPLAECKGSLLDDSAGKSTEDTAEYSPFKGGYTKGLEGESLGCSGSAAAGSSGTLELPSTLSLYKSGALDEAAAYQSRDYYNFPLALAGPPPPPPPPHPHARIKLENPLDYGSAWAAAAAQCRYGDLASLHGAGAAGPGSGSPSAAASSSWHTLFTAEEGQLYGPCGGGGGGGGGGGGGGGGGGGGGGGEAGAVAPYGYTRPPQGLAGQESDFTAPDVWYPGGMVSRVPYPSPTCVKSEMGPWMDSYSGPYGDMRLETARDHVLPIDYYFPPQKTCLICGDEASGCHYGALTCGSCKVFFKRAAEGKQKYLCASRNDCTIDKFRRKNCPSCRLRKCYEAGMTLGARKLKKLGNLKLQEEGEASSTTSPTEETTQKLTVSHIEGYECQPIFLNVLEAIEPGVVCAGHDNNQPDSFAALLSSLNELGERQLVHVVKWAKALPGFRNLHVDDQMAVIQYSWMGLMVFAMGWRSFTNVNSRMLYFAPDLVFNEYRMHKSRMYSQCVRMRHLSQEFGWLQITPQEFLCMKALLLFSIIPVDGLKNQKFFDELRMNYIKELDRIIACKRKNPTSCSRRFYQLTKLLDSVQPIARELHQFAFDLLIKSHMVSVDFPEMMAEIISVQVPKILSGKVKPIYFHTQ

BRD4 levels remained (BRD4; 24 h, 25 and 50 nM)	BRD4 degradation, time-dependent (BRD4; after 8 h)	BRD4 degradation, time-dependent (BRD4; after 24 h)	BRD4 degradation, time-dependent (BRD4; first 6 h)	Structure (SMILES)	AR degradation (androgen receptor (AR))
more than 80%	Small amounts of degradation	total degradation	no significant degradation	Cc1ncsc1-c1ccc([C@H](C)NC(=O)[C@@H]2C[C@@H](O)CN2C(=O)[C@@H](NC(=O)COCCCOCCNC(=O)C[C@@H]2N=C(c3ccc(Cl)cc3)c3c(sc(C)c3C)-n3c(C)nnc32)C(C)(C)C)cc1 [ARV-771]	
				CC1(C)C(=O)N(c2ccc(C#N)c(C(F)(F)F)c2)C(=S)N1CCCC(=O)NCCOCCOC(=O)CC12CC3CC(CC(C3)C1)C2 [SARD279]	no AR degradation
